Reference: PubChem BioAssay AID2202557 (NIEHS Division of Translational Toxicology (DTT))
Calls of active or inactive are those of the source. The rule behind the calls is not given here.

What follows are molecules tested on in vitro micronucleus assay, mammalian cells (assay: In vitro micronucleus assay, summary data).

Compound | outcome
c1cc[n+]2c(c1)-c1cccc[n+]1CC2 | active; positive
CCc1cccc(C)c1N(C(=O)CCl)C(C)COC (stereo unspecified) | active; positive
[Cl][In]([Cl])[Cl] | active; positive
CCOC(=O)C1=C[C@]2(CC)CCCN3CCc4c(n1c1ccccc41)[C@@H]32 | active; positive
NCP(=O)(O)O | inactive; negative
CCCCCCOc1ccc(O)cc1 | active; positive
